Test results from patent publication US20170349532A1, “CATIONIC LIPID” (Kyowa Hakko Kirin Co., Ltd., priority 2011, published 2017).

Experiment: Average particle diameter of preparation (Zetasizer Nano ZS)
Type: physicochemical
Conditions: average particle diameter of cationic lipid/nucleic acid complex; Example 118 preparation: compound/PEG-DMPE Na/DSPC/cholesterol with apo-b siRNA
Text: Preparations were produced using the compounds obtained in Examples 1 to 117, as follows.
APO-B siRNA was used as the nucleic acid. APO-B siRNA suppresses expression of an apolipoprotein-B (hereinafter, “apo-b”) gene and has a sense strand with the base sequence 5′-GmUCAmUCACACmUGAAmUACCAAmU-3′ (the sugars attached to the bases appended with m are 2′-O-methyl-substituted riboses), and an antisense strand with the base sequence 5′-[…]-3′ (the 5′-end is phosphorylated). The sense strand and the antisense strand were obtained from Nippon EGT, GeneDesign, Inc., Invitrogen or Hokkaido System Science Co., Ltd., and annealed to prepare the nucleic acid (hereinafter, “apo-b siRNA”).
A solution comprising the constituent components was prepared by dissolving each of the weighed samples in 90 vol % ethanol in 8.947/1.059/5.708/13.697 mmol/L [compounds 1 to 117 obtained in Examples 1 to 117/sodium 1,2-dimyristoyl-sn-glycero-3-phosphoethanolamine-N-(methoxy(polyethylene glycol)-2000) (PEG-DMPE Na,N-(carbonylmethoxypolyethylene glycol 2000)-1,2-dimyristoyl-sn-glycero-3-phosphoethanolamine sodium salt, NOF Corporation)/distearoylphosphatidyl choline (DSPC, 1,2-distearoyl-sn-glycero-3-phosphocholine, NOF Corporation)/cholesterol (Avanti Polar Lipids)]. Separately, apo-b siRNA/distilled water (24 mg/mL) was diluted with a Tris-EDTA buffer (200 mM Tris-HCl, 20 mM EDTA, Invitrogen) and a 20 mM citric acid buffer (pH 5.0) to prepare a 1.5 mg/mL apo-b siRNA aqueous solution (2 mM Tris-EDTA/20 mM citric acid buffer, pH 5.0).
The resulting lipid solution was heated to 37° C., and a 100-μL portion was transferred to a preparation container. The apo-b siRNA aqueous solution (100 μL) was then added thereto while being stirred. Then, a 20 mM citric acid buffer (containing 300 mM NaCl, pH 6.0; 200 μL) was added to the lipid nucleic acid mixed suspension (200 μL) while being stirred. The siRNA concentration was brought to 10 μM by dropping a Dulbecco phosphate buffer (DPBS, Invitrogen; 662 μL), and preparations (compositions comprising compounds 1 to 117 and the nucleic acid) were obtained.
The average particle diameter of the complex between the cationic lipis and the nucleic acid in each preparation was measured with a particle diameter measurement device (Malvern; Zetasizer Nano ZS).

Row | Structure (SMILES) | Particle diameter of Preparetion [nm]
1 | CCCCCCCCCCCCCCCCO[C@@H]1CN(C)C[C@H]1OCCCCCCCCCCCCCCCC [Compound 45, (3R,4R)-3,4-bis(Hexadecyloxy)-1-methylpyrrolidine] | 136.3
2 | CCCCCCCCCCCCCCCCCCO[C@@H]1CN(C)C[C@H]1OCCCCCCCCCCCCCCCCCC [Compound 46, (3R,4R)-1-Methyl-3,4-bis(octadecyloxy)pyrrolidine] | 192.0
3 | CCCC/C=C\CCCCCCCCO[C@@H]1CN(C)C[C@H]1OCCCCCCCC/C=C\CCCC [Compound 47, (3R,4R)-1-Methyl-3,4-bis((Z)-tetradec-9-enyloxy)pyrrolidine] | 125.8
4 | CCCCCC/C=C\CCCCCCCCCCO[C@@H]1CN(C)C[C@H]1OCCCCCCCCCC/C=C\CCCCCC [Compound 48, (3R,4R)-1-Methyl-3,4-bis((Z)-octadec-11-enyloxy)pyrrolidine] | 135.0
5 | CCCCC/C=C\C/C=C\CCCCCCCCO[C@@H]1CN(CCCO)C[C@H]1OCCCCCCCC/C=C\C/C=C\CCCCC [Compound 56, 3-((3R,4R)-3,4-bis((9Z,12Z)-Octadec-9,12-dienyloxy)pyrrolidin-1-yl)propan-1-ol] | 120.3
6 | CCCCC/C=C\C/C=C\CCCCCCCCO[C@@H]1CN(CCC(N)=O)C[C@H]1OCCCCCCCC/C=C\C/C=C\CCCCC [Compound 57, 3-((3R,4R)-3,4-bis((9Z,12Z)-Octadec-9,12-dienyloxy)pyrrolidin-1-yl)propanamide] | 159.2
7 | CCCCC/C=C\C/C=C\CCCCCCCCO[C@@H]1CN(CCC(=O)N(C)C)C[C@H]1OCCCCCCCC/C=C\C/C=C\CCCCC [Compound 58, 3-((3R,4R)-3,4-bis((9Z,12Z)-Octadec-9,12-dienyloxy)pyrrolidin-1-yl)-N,N-dimethylpropanamide] | 151.8
8 | CCCCC/C=C\C/C=C\CCCCCCCCO[C@@H]1CN(C(=O)CN)C[C@H]1OCCCCCCCC/C=C\C/C=C\CCCCC [Compound 61, (3R,4R)-1-(2-Aminoacetyl)-3,4-bis((9Z,12Z)-octadec-9,12-dienyloxy)pyrrolidine] | 125.9
9 | CCCCC/C=C\C/C=C\CCCCCCCCO[C@@H]1CN(C(=O)CCN)C[C@H]1OCCCCCCCC/C=C\C/C=C\CCCCC [Compound 62, (3R,4R)-1-(3-Aminopropanoyl)-3,4-bis((9Z,12Z)-octadec-9,12-dienyloxy)pyrrolidine] | 151.3
10 | CCCCC/C=C\C/C=C\CCCCCCCCO[C@@H]1CN(C(=O)[C@@H](N)CCCN)C[C@H]1OCCCCCCCC/C=C\C/C=C\CCCCC [Compound 63, (3R,4R)-1-((S)-2,5-Diaminopentanoyl)-3,4-bis((9Z,12Z)-octadec-9,12-dienyloxy)pyrrolidine] | 143.0
11 | CCCCC/C=C\C/C=C\CCCCCCCC(=O)O[C@@H]1CN(C(=O)CN)C[C@H]1OC(=O)CCCCCCC/C=C\C/C=C\CCCCC [Compound 65, (3R,4R)-1-(2-aminoacetyl)pyrrolidine-3,4-diyl di((9Z,12Z)-octadec-9,12-enoate)] | 128.9
12 | CCCCC/C=C\C/C=C\CCCCCCCC(=O)O[C@@H]1CN(C(=O)[C@@H](N)CCCCN)C[C@H]1OC(=O)CCCCCCC/C=C\C/C=C\CCCCC [Compound 66, (3R,4R)-1-((S)-2,6-Diaminohexanoyl)pyrrolidine-3,4-diyl di((9Z,12Z)-octadec-9,12-enoate)] | 137.4
13 | CCCCCCCC/C=C\CCCCCCCCOCCNCCOCCCCCCCC/C=C\CCCCCCCC [Compound 67, bis(2-((Z)-Octadec-9-enyloxy)ethyl)amine] | 127.6
14 | CCCC/C=C\CCCCCCCCOCCNCCOCCCCCCCC/C=C\CCCC [Compound 68, bis(2-((Z)-Tetradec-9-enyloxy)ethyl)amine] | 132.4
15 | CCCCCCCCCCCCCCOCCNCCOCCCCCCCCCCCCCC [Compound 69, bis(2-(Tetradecyloxy)ethyl)amine] | 136.8
16 | CCCCCCCCCCCCCCCCCCOCCNCCOCCCCCCCCCCCCCCCCCC [Compound 71, bis(2-(Octadecyloxy)ethyl)amine] | 148.4
17 | CCCCC/C=C\C/C=C\CCCCCCCC(=O)OCCNCCOC(=O)CCCCCCC/C=C\C/C=C\CCCCC [Compound 74, N,N-bis(2-((9Z,12Z)-Octadec-9,12-dienoyloxy)ethyl)amine] | 128.4
18 | CCCC/C=C\CCCCCCCCOCCN(C)CCOCCCCCCCC/C=C\CCCC [Compound 75, N-Methyl-N,N-bis(2-((Z)-Tetradec-9-enyloxy)ethyl)amine] | 124.0
19 | CCCCCCCCCCCCCCCCOCCN(C)CCOCCCCCCCCCCCCCCCC [Compound 76, N,N-bis(2-(Hexadecyloxy)ethyl)-N-methylamine] | 133.6
20 | CCCCCC/C=C\CCCCCCCCCCOCCN(C)CCOCCCCCCCCCC/C=C\CCCCCC [Compound 77, N-Methyl-N,N-bis(2-((Z)-octadec-11-enyloxy)ethyl)amine] | 119.7
21 | CCCCCCCC/C=C\CCCCCCCCCCOCCN(C)CCOCCCCCCCCCC/C=C\CCCCCCCC [Compound 78, N,N-bis(2-((Z)-Icos-11-enyloxy)ethyl)-N-methylamine] | 131.4

The next lines start with the values.

Row | Particle diameter of Preparetion [nm] | Structure (SMILES)
22 | 131.3 | CCCCCCCC/C=C\CCCCCCCCCCO[C@@H]1CNC[C@H]1OCCCCCCCCCC/C=C\CCCCCCCC [Compound 42, (3R,4R)-3,4-bis((Z)-Icos-11-enyloxy)pyrrolidine]
23 | 141.7 | CCCCCCCC/C=C\CCCCCCCCCCO[C@@H]1CN(C)C[C@H]1OCCCCCCCCCC/C=C\CCCCCCCC [Compound 49, (3R,4R)-3,4-bis((Z)-Icos-11-enyloxy)-1-methylpyrrolidine]
24 | 118.9 | CCCCC/C=C\C/C=C\CCCCCCCCO[C@H]1C[N+](C)(C)C[C@@H]1OCCCCCCCC/C=C\C/C=C\CCCCC [Compound 52, (3S,4S)-1,1-Dimethyl-3,4-bis((9Z,12Z)-octadec-9,12-dienyloxy)pyrrolidinium chloride]
25 | 152.4 | CCCCC/C=C\C/C=C\CCCCCCCC(=O)O[C@@H]1CN(CC(O)CO)C[C@H]1OC(=O)CCCCCCC/C=C\C/C=C\CCCCC (stereo partly drawn) [Compound 53, (3R,4R)-1-(2,3-dihydroxypropyl)pyrrolidine-3,4-diyl di((9Z,12Z)-octadec-9,12-enoate)]
26 | 148.9 | CCCCC/C=C\C/C=C\CCCCCCCCO[C@@H]1CN(CC(C)O)C[C@H]1OCCCCCCCC/C=C\C/C=C\CCCCC (stereo partly drawn) [Compound 54, 1-((3R,4R)-3,4-bis((9Z,12Z)-Octadec-9,12-dienyloxy)pyrrolidine-1-yl)propan-2-ol]
27 | 139.6 | CCCCC/C=C\C/C=C\CCCCCCCCO[C@@H]1CN(CC(O)COC)C[C@H]1OCCCCCCCC/C=C\C/C=C\CCCCC (stereo partly drawn) [Compound 55, 1-(3R,4R)-3,4-bis(((9Z,12Z)-Octadec-9,12-dienyloxy)pyrrolidine-1-yl)-3-methoxypropan-2-ol]
28 | 116.7 | CCCCC/C=C\C/C=C\CCCCCCCCO[C@@H]1CN(CCCN(C)C)C[C@H]1OCCCCCCCC/C=C\C/C=C\CCCCC [Compound 59, (3R,4R)-1-(3-N,N-Dimethylaminopropyl)-3,4-bis((9Z,12Z)-octadec-9,12-dienyloxy)pyrrolidine]
29 | 125.3 | CCCCC/C=C\C/C=C\CCCCCCCCO[C@@H]1CN(C2CCN(C)CC2)C[C@H]1OCCCCCCCC/C=C\C/C=C\CCCCC [Compound 60, 4-((3R,4R)-3,4-bis((9Z,12Z)-Octadec-9,12-dienyloxy)pyrrolidin-1-yl)-1-methylpiperidine]
30 | 146.0 | CCCCC/C=C\C/C=C\CCCCCCCCO[C@@H]1CN(C(=O)CCCCCN)C[C@H]1OCCCCCCCC/C=C\C/C=C\CCCCC [Compound 64, (3R,4R)-1-(6-Aminohexanoyl)-3,4-bis((9Z,12Z)-octadec-9,12-dienyloxy)pyrrolidine]
31 | 145.6 | CCCCCCCCCCCCCCCCOCCNCCOCCCCCCCCCCCCCCCC [Compound 70, bis(2-(Hexadecyloxy)ethyl)amine]
32 | 130.6 | CCCCCC/C=C\CCCCCCCCOCCNCCOCCCCCCCC/C=C\CCCCCC [Compound 72, bis(2-((Z)-Hexadec-9-enyloxy)ethyl)amine]
33 | 146.8 | CCCCCCCC/C=C\CCCCCCCC(=O)OCCNCCOC(=O)CCCCCCC/C=C\CCCCCCCC [Compound 73, N,N-bis(2-((Z)-Octadec-9-enoyloxy)ethyl)amine]
